Test results published in ChEMBL document CHEMBL4118258, “2-Substituted-1-(2-morpholinoethyl)-1H-naphtho[2,3-d]imidazole-4,9-diones: Design, synthesis and antiproliferative activity” (Bioorg Med Chem Lett, 2018).

Columns and labels:
MCF7 = experiment: Antiproliferative activity against human MCF7 cells after 72 hrs by MTT assay; format: functional, cell-based; conditions: MCF7, 72 h
HeLa = experiment: Antiproliferative activity against human HeLa cells after 72 hrs by MTT assay; format: functional, cell-based
L929 = experiment: Antiproliferative activity against mouse L929 cells after 72 hrs by MTT assay; conditions: L929, 72 h
A549 = experiment: cells; conditions: Homo sapiens, A549, 72 h
Description: Antiproliferative activity against human A549 cells after 72 hrs by MTT assay

SMILES	IC50 (MCF7)	IC50 (HeLa)	IC50 (L929)	IC50 (A549)
Cc1ccc(CCc2nc3c(n2CCN2CCOCC2)C(=O)c2ccccc2C3=O)o1	166 µM	88.2 µM	96.2 µM	72.8 µM
O=C1c2ccccc2C(=O)c2c1nc(-c1cccnc1)n2CCN1CCOCC1	167 µM	109 µM	44.6 µM	37.8 µM
O=C1c2ccccc2C(=O)c2c1nc(-c1ccc(-c3nc4c(n3CCN3CCOCC3)C(=O)c3ccccc3C4=O)cc1)n2CCN1CCOCC1	39.1 µM	79.2 µM	121 µM	63.4 µM
O=C1C(Cl)=C(NCCN2CCOCC2)C(=O)c2nccnc21	> 200 µM	> 200 µM	149 µM	158 µM
C[N+]1(CCn2c(-c3ccccc3)nc3c2C(=O)c2ccccc2C3=O)CCOCC1	184 µM	> 200 µM	> 200 µM	> 200 µM
O=C1c2ccccc2C(=O)c2c1nc(-c1ccc(F)c(Cl)c1)n2CCN1CCOCC1	48.4 µM	52.5 µM	44.3 µM	31.2 µM
O=C1c2ccccc2C(=O)c2c1nc(-c1ccncc1)n2CCN1CCOCC1	140 µM	153 µM	116 µM	120 µM
CC(C)Cc1nc2c(n1CCN1CCOCC1)C(=O)c1ccccc1C2=O	> 200 µM	180 µM	157 µM	25.9 µM
O=C1c2ccccc2C(=O)c2c1nc(-c1cccc3ccccc13)n2CCN1CCOCC1	30.1 µM	19.2 µM	41 µM	16.6 µM
O=C1c2ccccc2C(=O)c2c1nc(-c1ccccc1)n2CCN1CCOCC1	70.1 µM	61.4 µM	40.6 µM	24.5 µM
CC(C)(C)c1nc2c(n1CCN1CCOCC1)C(=O)c1ccccc1C2=O	150 µM	88.2 µM	86 µM	21.8 µM
O=C1c2ccccc2C(=O)c2c1nc(-c1ccsc1)n2CCN1CCOCC1	115 µM	136 µM	122 µM	20.9 µM
O=C1c2ccccc2C(=O)c2c1nc(-c1ccccn1)n2CCN1CCOCC1	37.7 µM	105 µM	118 µM	32.2 µM
Cc1cc2ncn(CCN3CCOCC3)c2cc1C	181 µM	> 200 µM	187 µM	112 µM
Cc1nc2c(n1CCN1CCOCC1)C(=O)c1ccccc1C2=O	> 200 µM	> 200 µM	118 µM	105 µM
CC(C)c1ccc(CC(C)c2nc3c(n2CCN2CCOCC2)C(=O)c2ccccc2C3=O)cc1 (configuration not stated)	110 µM	122 µM	> 200 µM	> 200 µM
CC(C)c1ccc(-c2nc3c(n2CCN2CCOCC2)C(=O)c2ccccc2C3=O)cc1	106 µM	99.8 µM	71.9 µM	70 µM
CCC(C)c1nc2c(n1CCN1CCOCC1)C(=O)c1ccccc1C2=O (configuration not stated)	123 µM	> 200 µM	100 µM	175 µM
O=C1c2ccccc2C(=O)c2c1nc(C(F)(F)F)n2CCN1CCOCC1	17.9 µM	15.1 µM	16.2 µM	15.9 µM
C[N+]1(CCn2c(C(F)(F)F)nc3c2C(=O)c2ccccc2C3=O)CCOCC1	139 µM	116 µM	> 200 µM	93.5 µM
Cc1ccccc1-c1nc2c(n1CCN1CCOCC1)C(=O)c1ccccc1C2=O	116 µM	121 µM	80.2 µM	23.6 µM
C[N+]1(CCn2c(-c3ccccn3)nc3c2C(=O)c2ccccc2C3=O)CCOCC1	141 µM	106 µM	106 µM	141 µM

SMILES	IC50 (MCF7)	IC50 (HeLa)	IC50 (L929)	IC50 (A549)
O=C1c2ccccc2C(=O)c2c1nc(-c1cccs1)n2CCN1CCOCC1	137 µM	173 µM	177 µM	91.9 µM
CCc1nc2c(n1CCN1CCOCC1)C(=O)c1ccccc1C2=O	179 µM	144 µM	106 µM	84.9 µM
O=C1c2ccccc2C(=O)c2c1nc(-c1ccco1)n2CCN1CCOCC1	169 µM	191 µM	175 µM	147 µM
COc1ccc(-c2nc3c(n2CCN2CCOCC2)C(=O)c2ccccc2C3=O)cc1Cl	10.6 µM	8.3 µM	67.3 µM	4.3 µM
CC(C)c1nc2c(n1CCN1CCOCC1)C(=O)c1ccccc1C2=O	123 µM	125 µM	79.8 µM	32.5 µM
O=C1c2ccccc2C(=O)c2c1nc(C1CCC1)n2CCN1CCOCC1	105 µM	99.3 µM	84.9 µM	73 µM
C[N+]1(CCn2c(-c3ccsc3)nc3c2C(=O)c2ccccc2C3=O)CCOCC1	133 µM	160 µM	133 µM	115 µM
O=C1c2ccccc2C(=O)c2c1nc(C1CC1)n2CCN1CCOCC1	64.7 µM	61.2 µM	40 µM	36 µM
CCC(CC)c1nc2c(n1CCN1CCOCC1)C(=O)c1ccccc1C2=O	108 µM	95.9 µM	79.4 µM	57.3 µM
COc1ccc(-c2nc3c(n2CCN2CCOCC2)C(=O)c2ccccc2C3=O)cc1	86.9 µM	112 µM	101 µM	84.5 µM
c1c2ncn(CCN3CCOCC3)c2cc2ncn(CCN3CCOCC3)c12	> 200 µM	> 200 µM	> 200 µM	> 200 µM
COc1ccc(-c2nc3c(n2CC[N+]2(C)CCOCC2)C(=O)c2ccccc2C3=O)cc1Cl	> 200 µM	97.5 µM	> 200 µM	174 µM
O=C1c2ccccc2C(=O)c2c1nc(C1CCCCC1)n2CCN1CCOCC1	> 200 µM	> 200 µM	80.3 µM	76.4 µM
O=C1c2ccccc2C(=O)c2c1nc(-c1cccc(C(F)(F)F)c1)n2CCN1CCOCC1	134 µM	185 µM	72.5 µM	33.3 µM
O=C1c2ccccc2C(=O)c2c1nc(-c1ccc(Cl)c(C(F)(F)F)c1)n2CCN1CCOCC1	140 µM	119 µM	111 µM	45.2 µM
CCCc1nc2c(n1CCN1CCOCC1)C(=O)c1ccccc1C2=O	95.9 µM	95.1 µM	80.3 µM	37.4 µM
O=C1c2ccccc2C(=O)c2c1nc(-c1cnccn1)n2CCN1CCOCC1	53.5 µM	79.1 µM	49.6 µM	78.3 µM
O=C1c2ccccc2C(=O)c2c1nc(-c1cccc(F)c1)n2CCN1CCOCC1	106 µM	133 µM	131 µM	87 µM
O=C1c2ccccc2C(=O)c2c1nc(/C=C/c1ccccc1)n2CCN1CCOCC1	58.3 µM	82.1 µM	120 µM	76.9 µM
CCCCc1nc2c(n1CCN1CCOCC1)C(=O)c1ccccc1C2=O	113 µM	166 µM	> 200 µM	107 µM
C[N+]1(CCn2c(-c3cccc(F)c3)nc3c2C(=O)c2ccccc2C3=O)CCOCC1	166 µM	166 µM	> 200 µM	166 µM
